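96-well plates; 48 h exposure; 5 concentrations. Endpoints by linear interpolation between flanking doses. Not reached: highest tested concentration assigned. TGI: concentration producing complete growth inhibition.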 Where a SMILES comes first, the peptide text is derived from it. The star is where a group is joined. Cbz = O=C(OCc1ccccc1)*
Assays:
Assay in all cases: DTP human tumour cell line panel, 48 h
KM12 colon = test system: KM12 colon
NCI-H23 lung = test system: NCI-H23 lung
A498 renal = test system: A498 renal
SF-295 CNS = test system: SF-295 CNS
SNB-75 CNS = test system: SNB-75 CNS
UACC-62 melanoma = test system: UACC-62 melanoma
COLO 205 colon = test system: COLO 205 colon
CCRF-CEM leukemia = test system: CCRF-CEM leukemia
MDA-MB-231 breast = test system: MDA-MB-231 breast
OVCAR-4 ovarian = test system: OVCAR-4 ovarian
HOP-62 NSCLC = test system: HOP-62 NSCLC

SMILES | TGI (KM12 colon) | TGI (NCI-H23 lung) | TGI (A498 renal) | TGI (SF-295 CNS) | TGI (SNB-75 CNS) | TGI (UACC-62 melanoma) | TGI (COLO 205 colon) | TGI (CCRF-CEM leukemia) | TGI (MDA-MB-231 breast) | TGI (OVCAR-4 ovarian) | TGI (HOP-62 NSCLC)
CCOC(=O)C(NC(=O)c1ccccc1)(N1CCN(c2cc3c(cc2F)c(=O)c(C(=O)O)cn3C2CC2)CC1)C(F)(F)F (stereo not drawn) | 31.7 µM | 32.9 µM | 72 µM | 87.9 µM | 69.9 µM | 47.6 µM | 30.8 µM | 14.6 µM | 31 µM | 63.4 µM | > 100 µM
COc1cc2c(cc1O)NC(=O)[C@@H]1CCCN1C2=O | > 100 µM | > 100 µM | > 100 µM | > 100 µM | > 100 µM | > 100 µM | > 100 µM | > 100 µM | > 100 µM | > 100 µM | > 100 µM
COC(=O)C1=C(OC)[C@H]2C#C/C=C\C#C[C@@H]3Nc4c(cc(O)c5c4C(=O)c4ccccc4C5=O)[C@]24O[C@@]34[C@H]1C | 0.0475 µM | < 0.01 µM | < 0.01 µM | < 0.01 µM | < 0.01 µM | < 0.01 µM | 0.014 µM | < 0.01 µM | 0.0179 µM | 0.2 µM | < 0.01 µM
COc1ccc(N2C(=O)C(=O)N(c3ccc(N=Nc4ccccc4)cc3)C2=S)cc1 | 32.9 µM | 34.9 µM | 52.3 µM | 35.4 µM | 55.5 µM | 31.6 µM | 31.4 µM | > 100 µM | 41.5 µM | 37.7 µM | 34.6 µM
CC(=O)c1c(N=[N+]=[N-])c2cccc3c2n(c1=O)CCC3 | 28.7 µM | 45.6 µM | 55.6 µM | 60 µM | 59.3 µM | 35.1 µM | 44.6 µM | 51.8 µM | 32.1 µM | 52.3 µM | 42.3 µM
CC1(C)O[C@H]2OC(CO)C(N=[N+]=[N-])[C@H]2O1 (stereo partly drawn) | > 100 µM | > 100 µM | > 100 µM | > 100 µM | > 100 µM | > 100 µM | > 100 µM | > 100 µM | > 100 µM | > 100 µM | > 100 µM
O=C(Cn1c2ccc(Br)cc2c2nc3ccccc3nc21)NNC(=S)NC1CCCCC1 | 48.2 µM | 30.5 µM | 35.1 µM | 25.7 µM | 47.5 µM | 43.2 µM | 26 µM | 18.8 µM | 31.6 µM | 41.2 µM | 30.6 µM
O=C1/C(=C\c2cccc(Oc3ccccc3)c2)S(=O)(=O)C(c2ccccc2)N1c1cccc(Cl)c1 (stereo not drawn) | > 100 µM | > 100 µM | > 100 µM | > 100 µM | > 100 µM | > 100 µM | > 100 µM | 83.9 µM | > 100 µM | > 100 µM | > 100 µM
C/C(=N\NC(=S)N1CCCC1)c1nc2ncccc2[nH]1 | 23.8 µM | 22.1 µM | 27.1 µM | 22.6 µM | > 100 µM | 11.2 µM | 28.5 µM | 1.1 µM | > 100 µM | 18.6 µM | 24.6 µM
COc1cc(Nc2nc3cc(C(F)(F)F)ccc3nc2C(=O)O)cc(OC)c1OC | > 100 µM | > 100 µM | > 100 µM | 67.8 µM | > 100 µM | > 100 µM | > 100 µM | 90.8 µM | 70.3 µM | > 100 µM | > 100 µM
N[C@H](Cc1ccc2oc3cc(=O)c4ccccc4c-3nc2c1)C(=O)O | > 100 µM | > 100 µM | > 100 µM | > 100 µM | > 100 µM | 62 µM | > 100 µM | 56.2 µM | > 100 µM | > 100 µM | > 100 µM
CC(=O)Nc1c(C(=N)C#N)ncn1CCO | > 100 µM | > 100 µM | > 100 µM | > 100 µM | > 100 µM | > 100 µM | > 100 µM | > 100 µM | > 100 µM | > 100 µM | > 100 µM
Cn1nnnc1SC(F)(F)c1nc2ccccc2o1 | > 100 µM | > 100 µM | > 100 µM | > 100 µM | > 100 µM | > 100 µM | > 100 µM | > 100 µM | > 100 µM | > 100 µM | > 100 µM
CCOC(=O)C(Cc1ccc(O)cc1)Nc1nc(=O)c2c(=O)oc(Cl)cc2o1 (stereo not drawn) | 22.5 µM | 40.5 µM | 35.3 µM | 29.8 µM | 18.6 µM | 28.5 µM | 37.9 µM | 23.4 µM | 23.1 µM | 25.9 µM | 26.7 µM
CN1CCCOC(c2ccc(Cl)cc2)O1 (stereo not drawn) | > 100 µM | > 100 µM | > 100 µM | > 100 µM | > 100 µM | > 100 µM | > 100 µM | > 100 µM | > 100 µM | > 100 µM | > 100 µM
N#Cc1cc2c(cc1Cl)Sc1nnc(Nc3ccccc3)n1S2(=O)=O | 4.65 µM | 3.26 µM | 20.8 µM | 9.2 µM | 10.7 µM | 3.58 µM | 4.75 µM | > 24 µM | 4.7 µM | 7.79 µM | 3.36 µM
CN1CC=C(c2c(N)nc(N)[nH]c2=O)CC1 | > 100 µM | > 100 µM | > 100 µM | > 100 µM | > 100 µM | > 100 µM | > 100 µM | > 100 µM | > 100 µM | > 100 µM | > 100 µM
O=C1C(Br)=CC2(C=C1Br)CCNC1=C2C(=O)c2ncccc2C1=O | 3.53 µM | 1.65 µM | 2.62 µM | 2.74 µM | 2.9 µM | 1.84 µM | 3.6 µM | 6.82 µM | 3.67 µM | 2.48 µM | 1.73 µM
CCOC(=O)CCC(NC(=O)OCc1ccccc1)C(=O)NC(CCC(=O)OCC)C(=O)OCC (stereo not drawn) (Cbz-Glu(OEt)-Glu(OEt)-OEt; configuration not given here) | > 100 µM | > 100 µM | > 100 µM | > 100 µM | > 100 µM | > 100 µM | > 100 µM | > 100 µM | > 100 µM | > 100 µM | > 100 µM
O=Cc1ccc(-c2ccc(-c3ccc(CO)s3)o2)s1 | > 100 µM | > 76.7 µM | 0.353 µM | > 87.9 µM | 69.1 µM | 6.03 µM | > 85.7 µM | > 23.7 µM | > 80.3 µM | > 100 µM | > 84.3 µM
CCOC(=O)c1c(OCC)[nH]c(=O)c(C(c2cccs2)c2c(O)c(C(=O)OCC)c(OCC)[nH]c2=O)c1O | 42.9 µM | 82.3 µM | 23.5 µM | 49.6 µM | 9.72 µM | 28.6 µM | 40.7 µM | > 100 µM | 30.1 µM | 76 µM | 35.8 µM
O=c1[nH]nc(Cc2ccc(Cl)cc2)n1/N=C/c1cccs1 | > 100 µM | > 100 µM | > 100 µM | 44 µM | 49.9 µM | > 100 µM | > 100 µM | > 100 µM | 49.7 µM | > 100 µM | 55.2 µM
CC(=O)SC(C[N+](=O)[O-])c1ccc2c(c1)OCO2 (stereo not drawn) | 12.7 µM | 34.6 µM | 18.3 µM | 26.1 µM | 41.1 µM | 11.3 µM | 36.9 µM | > 46.4 µM | 22.3 µM | 23.1 µM | 36.5 µM
CCOC(=O)CCC(NC(=O)C(Cc1ccccc1)NC(=O)OCc1ccccc1)C(=O)OCC (stereo not drawn) (Cbz-Phe-Glu(OEt)-OEt; configuration not given here) | 32.6 µM | 33.1 µM | 43.9 µM | 34.1 µM | 35.1 µM | 32.5 µM | 35.3 µM | > 64.7 µM | 29.5 µM | 32.1 µM | 32.5 µM
Oc1c(Br)ccc2cccnc12 | > 100 µM | 7.28 µM | 51.8 µM | 14.9 µM | > 100 µM | 7 µM | > 33.8 µM | 3.98 µM | 24.7 µM | > 92.9 µM | > 100 µM
CS(=O)(=O)N1CC(CCl)c2ccc(O)cc21 (stereo not drawn) | 7.83 µM | 7.6 µM | 3.78 µM | 11.6 µM | 8.4 µM | 28.7 µM | 4.34 µM | 23.8 µM | 6.16 µM | 9.9 µM | 13 µM
C/C=C\C(CC(=O)NCC(=O)c1c[nH]c2ccccc12)CC(=O)OC (stereo not drawn) | > 100 µM | > 100 µM | > 100 µM | > 100 µM | > 100 µM | > 100 µM | > 100 µM | 96.5 µM | > 100 µM | > 100 µM | > 100 µM
O=C1CC(=O)NC(=NN2C(=O)/C(=C/c3ccc(Cl)c(Cl)c3)N=C2c2ccccc2)N1 | 40.1 µM | > 100 µM | 62.9 µM | > 100 µM | 81.8 µM | 32.6 µM | 34.1 µM | 45.3 µM | 51.7 µM | > 100 µM | 79.6 µM

— PubChem BioAssay (NCI)
